Consider ten molecules from patent publication US6242600A, “2-piperazinone-1-acetic acid derivatives and their use” (Takeda Chemical Industries, Ltd., priority 1997, dated 2001).

Structures are written as SMILES. pIC50: −log10 of the molar value.

This experiment has as its system platelet aggregation induced by ADP (platelet rich plasma). The experiment in a line: Inhibitory Effect on Platelet Aggregation in Guinea Pigs (induced by ADP). It counts as cell-based. As to conditions: Cavia porcellus; guinea pig platelet rich plasma, about 400,000 platelets/μl, 37° C., ADP final concentration 1 μM, test drug added 2 minutes before ADP; read-out: Inhibition of platelet aggregation by ADP, IC50. How it is done:
Blood was collected from abdominal aorta of male guinea pigs under anesthesia with pentobarbital (20 mg/kg, i.p.) using sodium citrate as an anticoagulant (final concentration: 0.315%). The sodium citrate-supplemented blood was centrifuged at 1000 g for […] to obtain platelet rich plasma (PRP), which was further centrifuged at 1000 g for 10 minutes respectively at room temperature to obtain platelet poor plasma (PPP). The number of platelet was counted at automatic platelet counter (Sysmex E2500, Toaiyo-denshi). PRP was diluted with PPP to adjust the number of platelets to be about 400,000/μl. Platelet aggregation was measured as follows, using an 8-channel aggregometer (NBS HEMA TRACER VI, Niko Bioscience Inc.): The PRP (250 μl) was incubated at 37° C. for 2 minutes, to n added 25 μl of a test drug solution. Two minutes later, 25 μl of an agent (ADP; finalconcentration: 1 μM) for causing agglutination. The effect of the test drug was shown by the inhibition rate of the maximum aggregation rate of the test group against that of the control group.
As a reminder, the pIC50 is the IC50 on a negative log10 scale, so that one unit is a factor of ten. For `COC(=O)C[C@H]1C(=O)N(CC(=O)O)CCN1C(=O)[C@H](CC(=O)N1CCN(c2ccncc2)CC1)NS(=O)(=O)c1ccc(OC)cc1` [compound 33], the pIC50 is 6.62.
With `COC(=O)C[C@H]1C(=O)N(CC(=O)OC)CCN1C(=O)CCC(=O)N1CCN(c2ccccn2)CC1` [compound 12] the figure was 7.42.
The same measure for `CN[C@H](CC(=O)N1CCN(c2ccncc2)CC1)C(=O)N1CCN(CC(=O)O)C(=O)[C@@H]1CC(=O)OC` [compound 40]: 7.24; for `COC(=O)C[C@H]1C(=O)N(CC(=O)O)CCN1C(=O)[C@H](Cc1ccc(OC)cc1)NC(=O)C1CCN(c2ccncc2)CC1` [compound 9]: 7.15.
The same measure for `COC(=O)C[C@H]1C(=O)N(CC(=O)O)CCN1C(=O)[C@H](CC(=O)N1CCN(c2ccncc2)CC1)NC(=O)OC` [compound 24]: 7.21; for `COC(=O)C[C@H]1C(=O)N(CC(=O)O)CCN1C(=O)[C@@H](CC(=O)N1CCN(c2ccncc2)CC1)NS(=O)(=O)c1ccc(OC)cc1` [compound 31]: 7.22; for `COC(=O)C[C@H]1C(=O)N(CC(=O)O)CCN1C(=O)[C@H](CC(=O)N1CCN(c2ccncc2)CC1)NCc1ccc(OC)cc1` [compound 36]: 6.66.
For the molecule `COC(=O)C[C@H]1C(=O)N(CC(=O)O)CCN1C(=O)[C@@H](CC(=O)N1CCN(c2ccncc2)CC1)NC(=O)OCOC(=O)C(C)(C)C` [compound 43], the pIC50 was 7.00.
With `COC(=O)C[C@H]1C(=O)N(CC(=O)OC)CCN1C(=O)CCC(=O)N1CCN(c2ncccn2)CC1` [compound 14], the pIC50 was 7.12.
The same measure for `COC(=O)C[C@H]1C(=O)N(CC(=O)OC(C)(C)C)CCN1C(=O)[C@H](CC(=O)N1CCN(c2ccncc2)CC1)NC(=O)OC(C)(C)C` [compound 20]: 7.36.
